Experiment [1] has as its system HeLa cells. As to the kind of experiment: MTT cytotoxic assay, HeLa. Format: cell-based. As to conditions: Homo sapiens, 72 h. Here is the method:
Human breast cancer cell line (MDA-MB-231), cervical carcinoma cell line (HeLa), the liver cancer cell line (SMMC-7721) and normal hepatocyte cell line (QSG-7701) were maintained in Dulbecco Modified Eagle Medium (DMEM) containing 4.0 mM L-Glutamine and 4500 mg/L Glucose supplemented with 10% (v/v) foetal bovine serum (FBS) and 100 U/mL penicillin/streptomycin at 37 °C in humidified atmosphere of 5% CO2 and 95% air.
Exponentially growing MDA-MB-231, Hela and SMMC-7721 cell lines were seeded into 96-well plate for 100 μL and treated with different concentrations of the synthetic compounds for 72 h, and then 10 μL of MTT (10 mg/mL) was added and incubation for 3 ∼ 4 h at 37 °C. The generated purple formazan crystals from viable can be dissolved by adding 100 μL DMSO. The plates were swirled gently for 5 min and quantified by measuring the OD of the plates at the wavelength of 540 nm. Each concentration was repeated in three wells and the same experimental condition was provided for all compounds. The results were expressed as IC50 values with standard deviations, which was defined as the concentration at which 50% survival of cells was discerned. Etoposide was co-assayed as positive control.
The in vitro cytotoxic activity of derivatives 3a–d, 4a–h, 5a–h, and 6a–h were evaluated by MTT assay against human breast cancer cell line (MDA-MB-231), cervical carcinoma cell line (HeLa), hepatocarcinoma cell line (SMMC-7721) and human normal hepatocyte cell line (QSG-7701). The anticancer drug etoposide was co-assayed as the positive control. All tested compounds were dissolved in DMSO and the stock solutions were diluted by DMEM medium before treatment of the cultured cells.

Experiment [2] concerns HeLa cells. Nature of the experiment: Annexin V-FITC/PI dual staining apoptosis assay. Format: cell-based, human. The settings on record: 48 h, control 6.44. As to the method: The extent of apoptosis was quantitatively measured using Annexin V-FITC/PI dual staining assay. HeLa cells were seeded into a six-well plate at 5 × 10^5 cells per well in 10% foetal calf serum (FBS)-DMEM into six-well plates and treated with different concentrations of the indicated compound 4d for 48 h. The cells were detached with 0.25% trypsin, washed with ice-cold PBS for twice and then resuspended in 1 × Binding buffer ([…]). The cells were stained with 5 μL of Annexin V-FITC and 5 μL of PI ([…]) to each tube. The cells were gently vortexed and incubated in the dark at room temperature for 15 min and then keep them at 4 °C. The samples were analysed by a flow cytometer (Becton-Dickinson FACSCalibur, Totowa, NJ, USA) and data were analysed using the FlowJo software.
The Annexin V-FITC/PI dual staining assay on HeLa cells treated with compound 4d was carried out to examine the association of compound 4d-mediated cytotoxicity with induction of apoptosis.

For experiment [3], the system named is HeLa cells. Nature of the experiment: Cell cycle analysis (PI staining, flow cytometry). Format: cell-based, human. The settings on record: 0.2 μM, 48 h. Here is the method:
Cell cycle distributions in HeLa cells were determined through PI staining and analysed by flow cytometry. HeLa cells were seeded into a six-well plate at 5 × 10^5 cell/mL and treated with different concentrations of compound 4d for 48 h. After treatment, cells were detached with 0.25% trypsin, harvested by centrifugation, washed twice with ice-cold PBS and then fixed and permeabilised with ice-cold 70% ethanol at 4 °C overnight. Ethanol was removed and the cells were washed twice with ice-cold PBS. After this, the cells were treated with 100 μL of RNase (100 μg/mL) at 37 °C for 30 min, followed by incubation with 400 μL of DNA staining solution propidium iodide (PI) (1 mg/mL) in the dark at 4 °C for 30 min. The samples were analysed by a flow cytometer (Becton-Dickinson FACSCalibur, Totowa, NJ, USA) and data were analysed using the FlowJo software (Becton-Dickinson & Co, Totowa, NJ, USA).
Cell cycle distribution in HeLa cells was examined to determine whether or not compound 4d inhibited the proliferation of these cells through cell cycle arrest. HeLa cells were treated with different concentrations of compound 4d (0, 0.05, 0.1, and 0.2 μM) for 48 h. Cell cycle distribution was investigated by flow cytometric analysis after staining the DNA of the treated cells by PI. […] This phenomenon was accompanied by a decrease in the population of cells in G2/M phase.
In general terms: Flow cytometry measures light scatter and fluorescence of single cells or particles in a stream.

In experiment [4] the test system is p90RSK, p-p90RSK, BAD, BIM in HeLa cells. Nature of the experiment: Western blot of downstream proteins of ERK. It counts as cell-based, human. The settings on record: 0.05, 0.1, 0.2 μM, 48 h. As to the method: HeLa cells were seeded at a density of 5 × 10^6 cells per well and attached for 8 h, and then treated with different concentrations of compound 4d for 48 h. After the treatment, the cells were harvested and washed twice with PBS. The harvested cells were lysed with radio-immunoprecipitation assay (RIPA) lysis buffer (Beyotime Biotech., Nantong, China) with 1% cocktail (Sigma-Aldrich, St. Louis, MO, USA). Whole-cell protein lysates were prepared and centrifuged at 12,000 rpm for 10 min at 4 °C. The total proteins were determined using Bradford reagent (Bio-Rad Laboratories, Inc., Hercules, CA, USA). Exactly 40 μg of protein per lane was separated through sodium dodecyl sulphate-polyacrylamide gel electrophoresis and then transferred onto a polyvinylidene difluoride membrane (Millipore, Bedford, MA, USA). The membranes were incubated with each antibody and detected through immunoblot analysis. All of the antibodies were purchased from Cell signalling Technology, Inc. (Boston, MA, USA) and diluted in accordance with the manufacturer’s instruction. Proteins were visualised using a C-Digit® imaging system (LI-COR, Lincoln, NE, USA).
In addition, the effect of compound 4d on the downstream proteins of ERK (p90RSK, BAD, and BIM) was also investigated by western blot analysis. It is known that activated ERK1/2 (p-ERK1/2) directly phosphorylates and activates p90RSK, which subsequently decreases the level of pro-apoptotic BH3-only proteins BIM and BAD and inhibits their apoptosis-promoting activity.
On the technique in general: In western blotting, separated proteins are transferred to a membrane and probed.

Data on one compound can be found in article PMC6522941, “Design, synthesis, and anticancer evaluation of novel quinoline derivatives of ursolic acid with hydrazide, oxadiazole, and thiadiazole moieties as potent MEK inhibitors” (Journal of Enzyme Inhibition and Medicinal Chemistry, 2019).

Each structure is given as a SMILES string.

The IC50 is the concentration at which inhibition is half-maximal. Take `CC(=O)NNC(=O)C12CCC(C)C(C)C1C1=CCC3C4(C)Cc5cc6cc(Cl)ccc6nc5C(C)(C)C4CCC3(C)C1(C)CC2` (stereo not shown) [Compound 4d, N-[5′-chloro-ursa-12-en-(2,3)-quinoline-28-oyl]-acetohydrazide]: the IC50 in experiment [1] is 0.08 ± 0.01 µM. For the same compound, the “percentage of early and late apoptotic cells” value (from here on “percentage”) in experiment [2] (0.05 μM) came to 37.56%. The “percentage” value in experiment [2] (0.1 μM) is 58.31%. The “percentage” value in experiment [2] (0.2 μM) came out at 74.22%. In experiment [3] (control 25.95), the “population of cells in G2/M phase” value is 8.51%. In addition, the “population of cells in G0/G1 phase” value in experiment [3] (control 48.32) is 63.75%. For the same compound, in experiment [4], the “expression level of p90RSK” value is “significantly decreased”, the “expression level of p-p90RSK” value is reported as “significantly decreased”, the “level of BAD” value was “upregulated” and the “level of BIM” value is “upregulated”.
